Experimental data taken from ChEMBL document CHEMBL6109114, “Design, synthesis, and biological evaluation of 4-(2-fluorophenoxy)pyridine derivatives as novel FLT3-ITD inhibitors” (Eur J Med Chem, 2025).
Activity calls are given as the source filed them. No cut-off for these calls is given here.

Key:
BaF3 [1] = test: Antiproliferative activity against mouse BaF3 cells harbouring VEGFR2 assessed as inhibition of cell growth measured after 3 days by celltiter-glo luminescent cell viability assay; format: functional, cell-based; details: BaF3, 72 h
BaF3 [2] = test: Antiproliferative activity against wild type mouse BaF3 cells assessed as inhibition of cell growth measured after 3 days by celltiter-glo luminescent cell viability assay; format: functional, cell-based; details: BaF3, 72 h
MV4-11 = test: Antiproliferative activity against human MV4-11 cells harbouring FLT3-ITD assessed as inhibition of cell growth measured after 3 days by celltiter-glo luminescent cell viability assay; format: functional, cell-based; details: MV4-11, 72 h
[3] = Antiproliferative activity against non-FLT3 expressing human OCI-Ly1 cells assessed as inhibition of cell growth measured after 3 days by celltiter-glo luminescent cell viability assay; format: functional, cell-based; details: OCI-Ly1, 72 h
MOLM-13 [4] = test: Antiproliferative activity against human MOLM-13 cells harbouring FLT3-ITD assessed as inhibition of cell growth measured after 3 days by celltiter-glo luminescent cell viability assay; format: functional, cell-based; details: MOLM-13, 72 h
HL-60 = test: Antiproliferative activity against human HL-60 cells harbouring wild type FLT3 assessed as inhibition of cell growth measured after 3 days by celltiter-glo luminescent cell viability assay; format: functional, cell-based; details: HL-60, 72 h
[5] = target: Mast/stem cell growth factor receptor Kit (Homo sapiens) (UniProt P10721); test: Inhibition of human c-Kit at 1 uM by Eurofins-DiscoverX assay
[6] = target: T1, Cyclin-dependent kinase 1/cyclin B1 (Homo sapiens) (UniProt P06493+P14635); test: Inhibition of human CDK1/CyclinB1 at 1 uM by Eurofins-DiscoverX assay; format: protein-complex assay
[7] = target: CDK6/cyclin D3 (Homo sapiens) (UniProt P30281+Q00534); test: Inhibition of human CDK6/cyclinD3 at 1 uM by Eurofins-DiscoverX assay; format: protein-complex assay
[8] = target: CDK4/Cyclin D3 (Homo sapiens) (UniProt P11802+P30281); test: Inhibition of human CDK4/cyclinD3 at 1 uM by Eurofins-DiscoverX assay; format: protein-complex assay
[9] = target: T1, Cyclin-dependent kinase 1/cyclin B1 (Homo sapiens); test: Inhibition of human CDK1/CyclinB1 assessed as remaining activity at 1 uM by Eurofins-DiscoverX assay relative to control; format: protein-complex assay
[10] = target: Cyclin-dependent kinase 2/cyclin A (Homo sapiens) (UniProt P24941+P20248+P78396); test: Inhibition of human CDK2/CyclinA assessed as remaining activity at 1 uM by Eurofins-DiscoverX assay relative to control; format: protein-complex assay
BaF3 [11] = test: Antiproliferative activity against mouse BaF3 cells harbouring TEL-FLT3 assessed as inhibition of cell growth measured after 3 days by celltiter-glo luminescent cell viability assay; format: functional, cell-based; details: BaF3, 72 h
BaF3 [12] = test: Antiproliferative activity against mouse BaF3 cells harbouring FLT3-ITD-D835Y mutant assessed as inhibition of cell growth measured after 3 days by celltiter-glo luminescent cell viability assay; format: functional, cell-based; details: BaF3, 72 h
MOLM-13 [13] = test: Induction of apoptosis in human MOLM-13 cells assessed as viable cells at 1 uM incubated for 48 hrs by Annexin V-FITC/PI staining based flow cytometry analysis (reference value: 91.9%); format: functional; details: read-out: Activity
MOLM-13 [14] = test: Induction of apoptosis in human MOLM-13 cells assessed as early apoptotic cells at 0.1 uM incubated for 48 hrs by Annexin V-FITC/PI staining based flow cytometry analysis (reference value: 4.93%); format: functional
MOLM-13 [15] = test: Induction of apoptosis in human MOLM-13 cells assessed as early apoptotic cells at 0.3 uM incubated for 48 hrs by Annexin V-FITC/PI staining based flow cytometry analysis (reference value: 4.93%); format: functional
MOLM-13 [16] = test: Induction of apoptosis in human MOLM-13 cells assessed as late apoptotic cells at 0.3 uM incubated for 48 hrs by Annexin V-FITC/PI staining based flow cytometry analysis (reference value: 3.10%); format: functional
MOLM-13 [17] = test: Induction of cell cycle arrest in human MOLM-13 cells assessed as accumulation of cells at G1 phase at 0.1 uM incubated for 48 hrs (reference value: 40.3%); format: functional
MOLM-13 [18] = test: Induction of cell cycle arrest in human MOLM-13 cells assessed as accumulation of cells at S phase at 0.1 uM incubated for 48 hrs (reference value: 41.6%); format: functional
MOLM-13 [19] = test: Induction of cell cycle arrest in human MOLM-13 cells assessed as accumulation of cells at G2 phase at 0.3 uM incubated for 48 hrs (reference value: […]); format: functional
[20] = Metabolic stability in Sprague-Dawley rat liver microsomes assessed as intrinsic clearance at 1 uM measured up to 60 mins in presence of NADPH regenerating system by LC-MS/MS analysis; format: ADME, Microsome; details: read-out: CLH
[21] = Metabolic stability in human liver microsomes assessed as half life at 1 uM measured up to 60 mins in presence of NADPH regenerating system by LC-MS/MS analysis; format: ADME, Microsome
[22] = Metabolic stability in Beagle dog liver microsomes assessed as intrinsic clearance at 1 uM measured up to 60 mins in presence of NADPH regenerating system by LC-MS/MS analysis; format: ADME, Canis lupus familiaris, Microsome; details: read-out: CLH
[23] = Metabolic stability in Beagle dog liver microsomes assessed as parent compound remaining at 1 uM measured after 60 mins in presence of NADPH regenerating system by LC-MS/MS analysis; format: ADME, Canis lupus familiaris, Microsome; details: read-out: Stability
[24] = Metabolic stability in Beagle dog liver microsomes assessed as parent compound remaining at 1 uM measured after 60 mins by LC-MS/MS analysis; format: ADME, Canis lupus familiaris, Microsome; details: read-out: Stability
[25] = Permeability of the compound incubated for 4 hrs by PAMPA method; format: ADME; details: read-out: permeability
CYP1A2 = CYP1A2 (Homo sapiens, UniProt P05177); test: Inhibition of CYP1A2 in human liver microsomes using phenacetin as substrate at 10 uM incubated for 10 mins in presence of NADPH by LC-MS/MS analysis relative to control; format: ADME, Microsome; details: probe phenacetin
CYP2C9 = CYP2C9 (Homo sapiens, UniProt P11712); test: Inhibition of CYP2C9 in human liver microsomes using diclofenac as substrate at 10 uM incubated for 10 mins in presence of NADPH by LC-MS/MS analysis relative to control; format: ADME, Microsome; details: probe diclofenac
CYP2C19 = CYP2C19 (Homo sapiens, UniProt P33261); test: Inhibition of CYP2C19 in human liver microsomes using S-mephenytoin as substrate at 10 uM incubated for 10 mins in presence of NADPH by LC-MS/MS analysis relative to control; format: ADME, Microsome; details: probe S-mephenytoin
[26] = target: Voltage-gated inwardly rectifying potassium channel KCNH2 (Homo sapiens, UniProt Q12809); test: Inhibition of human ERG expressed in CHO cells by Qpatch assay; format: toxicity, cell-based
[27] = Half life in mouse at 5 mg/kg, iv; format: ADME, organism-based; details: in vivo
[28] = AUC (0 to infinity) in mouse at 5 mg/kg, iv; format: ADME, organism-based; details: in vivo
[29] = MRT (0 to t) in mouse at 5 mg/kg, iv; format: ADME, organism-based; details: in vivo
[30] = Clearance in mouse at 5 mg/kg, iv; format: ADME, organism-based; details: in vivo
[31] = Half life in mouse at 10 mg/kg, po; format: ADME, organism-based; details: in vivo
[32] = Tmax in mouse at 10 mg/kg, po; format: ADME, organism-based; details: in vivo
MOLM-13 [33] = test: Antitumor activity against human MOLM-13 xenografted in male nude mouse assessed as tumor growth inhibition at 30 mg/kg, po administered once daily for 14 days by vernier caliper method relative to control; format: functional; details: MOLM-13, 336 h, time 14 day, read-out: TGI

T1 sequence (P06493 whole entry, looked up): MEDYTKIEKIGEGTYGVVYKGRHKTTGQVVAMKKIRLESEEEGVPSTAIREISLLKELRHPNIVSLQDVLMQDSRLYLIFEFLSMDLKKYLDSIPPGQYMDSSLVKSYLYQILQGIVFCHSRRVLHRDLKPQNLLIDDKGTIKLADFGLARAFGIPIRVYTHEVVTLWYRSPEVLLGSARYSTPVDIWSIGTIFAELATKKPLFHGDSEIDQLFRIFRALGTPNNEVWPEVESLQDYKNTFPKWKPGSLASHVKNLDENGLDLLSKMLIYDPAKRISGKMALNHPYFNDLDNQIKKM
T1 sequence (P14635 whole entry, looked up): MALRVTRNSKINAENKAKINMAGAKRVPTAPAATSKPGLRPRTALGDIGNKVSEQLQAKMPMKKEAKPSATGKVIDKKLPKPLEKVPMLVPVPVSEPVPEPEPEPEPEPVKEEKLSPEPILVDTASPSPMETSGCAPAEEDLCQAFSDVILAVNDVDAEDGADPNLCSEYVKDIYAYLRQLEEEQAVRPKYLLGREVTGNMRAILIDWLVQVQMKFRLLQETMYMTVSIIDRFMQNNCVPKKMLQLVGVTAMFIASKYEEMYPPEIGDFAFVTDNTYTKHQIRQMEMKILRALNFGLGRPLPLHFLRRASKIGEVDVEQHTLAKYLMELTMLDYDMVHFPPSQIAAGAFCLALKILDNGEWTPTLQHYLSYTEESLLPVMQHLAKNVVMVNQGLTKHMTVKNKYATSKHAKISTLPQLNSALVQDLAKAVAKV
Sequence of Voltage-gated inwardly rectifying potassium channel KCNH2 (Q12809 whole entry): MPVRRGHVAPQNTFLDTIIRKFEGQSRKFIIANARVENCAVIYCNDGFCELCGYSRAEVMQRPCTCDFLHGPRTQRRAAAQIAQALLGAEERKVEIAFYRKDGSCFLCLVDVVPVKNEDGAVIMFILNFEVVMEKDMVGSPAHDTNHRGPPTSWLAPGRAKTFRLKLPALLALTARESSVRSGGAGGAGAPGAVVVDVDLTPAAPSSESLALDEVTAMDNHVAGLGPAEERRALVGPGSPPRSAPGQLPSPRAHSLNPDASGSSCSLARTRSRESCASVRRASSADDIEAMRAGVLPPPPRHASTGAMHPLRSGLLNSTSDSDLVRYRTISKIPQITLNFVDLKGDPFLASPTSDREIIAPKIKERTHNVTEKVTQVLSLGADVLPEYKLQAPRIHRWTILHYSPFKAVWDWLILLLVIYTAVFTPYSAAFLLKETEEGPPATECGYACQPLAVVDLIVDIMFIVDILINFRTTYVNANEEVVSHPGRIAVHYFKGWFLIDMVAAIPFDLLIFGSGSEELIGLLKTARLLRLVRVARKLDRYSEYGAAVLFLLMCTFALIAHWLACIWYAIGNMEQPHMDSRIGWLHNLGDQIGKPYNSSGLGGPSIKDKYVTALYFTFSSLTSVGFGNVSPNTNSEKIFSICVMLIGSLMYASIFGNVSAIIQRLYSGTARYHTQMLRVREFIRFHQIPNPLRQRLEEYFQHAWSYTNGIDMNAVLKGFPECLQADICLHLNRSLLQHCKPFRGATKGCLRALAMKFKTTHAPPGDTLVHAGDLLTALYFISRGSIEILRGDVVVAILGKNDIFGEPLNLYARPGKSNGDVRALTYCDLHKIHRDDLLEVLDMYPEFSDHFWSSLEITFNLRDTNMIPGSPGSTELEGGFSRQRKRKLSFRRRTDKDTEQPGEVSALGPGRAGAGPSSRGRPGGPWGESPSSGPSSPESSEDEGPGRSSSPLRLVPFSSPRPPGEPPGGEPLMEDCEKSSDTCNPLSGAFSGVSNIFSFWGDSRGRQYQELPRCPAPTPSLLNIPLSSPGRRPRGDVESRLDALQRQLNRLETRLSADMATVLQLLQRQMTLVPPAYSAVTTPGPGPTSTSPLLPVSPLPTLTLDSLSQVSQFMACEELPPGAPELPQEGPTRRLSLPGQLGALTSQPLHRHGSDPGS
Sequence of Mast/stem cell growth factor receptor Kit (Homo sapiens) (P10721 whole entry): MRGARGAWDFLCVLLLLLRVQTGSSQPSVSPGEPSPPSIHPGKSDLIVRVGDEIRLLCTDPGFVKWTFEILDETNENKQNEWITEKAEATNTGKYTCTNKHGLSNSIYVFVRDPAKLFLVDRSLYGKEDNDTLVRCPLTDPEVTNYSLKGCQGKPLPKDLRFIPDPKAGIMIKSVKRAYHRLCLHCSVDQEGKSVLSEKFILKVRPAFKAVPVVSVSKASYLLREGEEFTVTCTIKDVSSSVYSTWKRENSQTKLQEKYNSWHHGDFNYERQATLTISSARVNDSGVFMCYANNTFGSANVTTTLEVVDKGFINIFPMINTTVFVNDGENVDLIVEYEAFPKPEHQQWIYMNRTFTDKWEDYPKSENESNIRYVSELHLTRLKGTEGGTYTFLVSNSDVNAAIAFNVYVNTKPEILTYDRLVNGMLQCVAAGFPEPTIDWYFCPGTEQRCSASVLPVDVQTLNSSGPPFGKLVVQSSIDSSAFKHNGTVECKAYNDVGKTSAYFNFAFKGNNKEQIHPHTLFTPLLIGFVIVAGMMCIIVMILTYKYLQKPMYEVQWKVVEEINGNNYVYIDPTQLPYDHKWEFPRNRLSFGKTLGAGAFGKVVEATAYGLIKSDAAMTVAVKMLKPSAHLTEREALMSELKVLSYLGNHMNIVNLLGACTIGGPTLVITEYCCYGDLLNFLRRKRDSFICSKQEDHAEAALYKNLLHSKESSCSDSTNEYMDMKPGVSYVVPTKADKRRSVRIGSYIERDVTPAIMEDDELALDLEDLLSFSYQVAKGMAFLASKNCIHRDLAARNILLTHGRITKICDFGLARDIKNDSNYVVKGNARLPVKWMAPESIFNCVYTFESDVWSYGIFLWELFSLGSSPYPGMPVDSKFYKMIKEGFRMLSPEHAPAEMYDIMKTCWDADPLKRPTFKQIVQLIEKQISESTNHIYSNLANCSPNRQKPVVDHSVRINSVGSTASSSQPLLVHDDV
Sequence of CYP2C19 (P33261 whole entry): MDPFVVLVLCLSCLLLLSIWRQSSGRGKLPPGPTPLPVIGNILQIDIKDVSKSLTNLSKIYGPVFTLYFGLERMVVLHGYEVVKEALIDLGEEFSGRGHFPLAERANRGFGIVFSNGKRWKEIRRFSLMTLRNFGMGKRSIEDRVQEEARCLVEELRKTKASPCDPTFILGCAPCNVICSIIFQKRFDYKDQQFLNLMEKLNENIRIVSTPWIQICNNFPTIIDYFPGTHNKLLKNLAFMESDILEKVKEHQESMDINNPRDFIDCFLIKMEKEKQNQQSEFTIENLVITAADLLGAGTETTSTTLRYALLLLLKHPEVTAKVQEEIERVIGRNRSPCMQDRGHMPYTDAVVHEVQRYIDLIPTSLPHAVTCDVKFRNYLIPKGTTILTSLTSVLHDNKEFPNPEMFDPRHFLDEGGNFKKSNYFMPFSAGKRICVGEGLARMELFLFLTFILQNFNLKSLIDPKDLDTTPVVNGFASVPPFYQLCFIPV
Sequence of CYP1A2 (P05177 whole entry): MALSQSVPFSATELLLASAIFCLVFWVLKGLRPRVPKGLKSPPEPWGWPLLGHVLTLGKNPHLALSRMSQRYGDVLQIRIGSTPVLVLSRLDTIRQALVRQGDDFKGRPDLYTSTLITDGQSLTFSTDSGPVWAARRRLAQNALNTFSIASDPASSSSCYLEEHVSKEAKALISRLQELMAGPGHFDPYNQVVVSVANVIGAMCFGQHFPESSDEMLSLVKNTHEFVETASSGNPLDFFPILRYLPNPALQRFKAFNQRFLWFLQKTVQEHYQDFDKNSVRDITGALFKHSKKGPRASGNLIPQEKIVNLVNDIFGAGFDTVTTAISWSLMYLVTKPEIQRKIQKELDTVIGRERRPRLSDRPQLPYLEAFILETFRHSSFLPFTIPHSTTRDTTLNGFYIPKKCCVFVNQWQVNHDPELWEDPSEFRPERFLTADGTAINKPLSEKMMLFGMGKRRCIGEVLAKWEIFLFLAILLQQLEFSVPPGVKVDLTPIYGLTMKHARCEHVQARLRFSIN
Sequence of CYP2C9 (P11712 whole entry): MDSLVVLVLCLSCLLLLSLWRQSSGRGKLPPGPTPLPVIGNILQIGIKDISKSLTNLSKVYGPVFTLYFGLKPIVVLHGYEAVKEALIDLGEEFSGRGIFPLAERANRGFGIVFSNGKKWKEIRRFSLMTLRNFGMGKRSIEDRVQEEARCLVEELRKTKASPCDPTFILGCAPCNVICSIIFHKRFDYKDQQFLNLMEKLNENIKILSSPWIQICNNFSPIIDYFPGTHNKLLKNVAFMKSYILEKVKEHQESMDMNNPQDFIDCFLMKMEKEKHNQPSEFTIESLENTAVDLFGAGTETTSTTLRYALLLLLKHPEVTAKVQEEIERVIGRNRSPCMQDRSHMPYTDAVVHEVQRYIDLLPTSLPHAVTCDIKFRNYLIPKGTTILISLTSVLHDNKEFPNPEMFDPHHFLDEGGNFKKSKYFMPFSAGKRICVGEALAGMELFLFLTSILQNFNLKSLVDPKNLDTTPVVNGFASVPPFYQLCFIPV

IC50 (BaF3 [1]): 0.31 µM
IC50 (BaF3 [2]): > 10 µM
IC50 (MV4-11): 0.39 µM
IC50 (MOLM-13 [4]): 0.14 µM
IC50 (HL-60): 18.9 µM
inhibition [5]: inactive
inhibition [6]: inactive
inhibition [7]: inactive
inhibition [8]: inactive
Activity [9]: 88%
Activity [10]: 88%
IC50 (BaF3 [11]): 3.69 µM
IC50 (BaF3 [12]): 6.6 µM
microsomal CLint at 1 µM [20]: 11.8 µL/min/mg
half-life at 1 µM [21]: 1.82 h
microsomal CLint at 1 µM [22]: 11.1 µL/min/mg
remaining at 1 h, 1 µM [23]: 72.7%
remaining at 1 h, 1 µM [24]: 103%
Papp at 4 h [25]: 0.86 ×10⁻⁶ cm/s
inhibition at 10 min, 10 µM (CYP1A2): 9.5%
inhibition at 10 min, 10 µM (CYP2C9): 25.6%
inhibition at 10 min, 10 µM (CYP2C19): 36.9%
half-life [27]: 6.57 h
AUC(0-inf) [28]: 2210 ng·h/mL
MRT last [29]: 7.17 h
clearance [30]: 38.8 mL/min/kg
half-life [31]: 1.83 h
Tmax [32]: 1.17 h
SMILES: Cc1cc(=O)n(-c2cc(Cl)ccc2F)nc1C(=O)Nc1ccc(Oc2ccnc(NC(=O)N3CC(O)C3)c2)c(F)c1
IC50 [3]: 12.3 µM
viability at 1 µM (MOLM-13 [13]): 33.5%
Activity (MOLM-13 [14]): 5.69%
Activity (MOLM-13 [15]): 13.4%
Activity (MOLM-13 [16]): 12.3%
Activity (MOLM-13 [17]): 50.1%
Activity (MOLM-13 [18]): 40.5%
Activity (MOLM-13 [19]): 8.51%
IC50 [26]: > 30 µM
inhibition in vivo at 30 mg/kg (MOLM-13 [33]): 77.1%
